Assay results published in article PMC5478727, “A Novel Small Molecule GDNF Receptor RET Agonist, BT13, Promotes Neurite Growth from Sensory Neurons in Vitro and Attenuates Experimental Neuropathy in the Rat” (Frontiers in Pharmacology, 2017).

Assays:
[1] = test system: adult rat lumbar DRG sensory neurons; assay: Neurite outgrowth from cultured DRG neurons; format: cell-based; conditions: for effect of pre-treatment on BT13-stimulated neurite outgrowth: LY294002 50 μM; for effect of pre-treatment on BT13-stimulated neurite outgrowth / block of BT13-stimulated neurite outgrowth, maximum length, mean difference / block of BT13-stimulated neurite outgrowth, total length, mean difference: PD98059 50 μM, SU6656 2 μM; for block of BT13-stimulated neurite outgrowth, maximum length, mean difference / block of BT13-stimulated neurite outgrowth, total length, mean difference: pre-treatment with inhibitor: LY294002 50 μM
Protocol: Cultured lumbar DRG (L3–L5) neurons were prepared using a published method (O'Mullane et al., [2013]). After plating onto poly-L-ornithine (5 μg/ml)/laminin (5 μg/ml) coated coverslips for 1 h, DRG neurons were cultured for 24–30 h in fresh Neurobasal A/B27. GFLs, BT13, NGF, and vehicle control were added at the start of this period for a 24–30 h treatment, except when preceded by pre-treatment (1 h) with inhibitors (50 μM LY294002; 2 μM SU6656, […]; Biomol Research Laboratories, Plymouth Meeting, PA, USA). DRG neurons were then fixed (4% paraformaldehyde) and processed for immunocytochemistry with 1:200 Mouse anti-β III tubulin/AlexaFluor 594 (Sigma-Aldrich Cat# T8660 RRID:AB_477590) and 1:5,000 rabbit anti-calcitonin gene-related peptide/AlexaFluor 488 (Sigma-Aldrich Cat# C8198 RRID:AB_259091) and DAPI for nuclear staining (0.5 μg/ml, Molecular Probes). Image analysis of multichannel 12 bit Zeiss .ZVI or .TIF files (captured with a Zeiss Imager.M1/MRm camera/Zen software; Carl Zeiss Australia, North Ryde, NSW, Australia) was then performed by a researcher blinded to the experimental condition. Neurite initiation was measured by a single parameter (proportion of neurons with neurites longer than the soma diameter). Neurite elongation was measured by batch processing (HCA-Vision software; CSIRO Mathematical and Information Sciences, North Ryde, NSW, Australia) to obtain four parameters—Root number: number of primary neurites; Maximum length: length of longest neurite; Branch points: number of neurite branch points; and Total length: sum of neurite lengths (Kalous and Keast, [2010]; Kalous et al., [2012]). The number of neurons of each immunocytochemical class counted on each coverslip (technical replicates) was 50 for neurite initiation and 20 for neurite elongation. A minimum of three cultures from different rats (biological replicates) were analyzed for each treatment group.

[2] = test system: rats with spinal nerve ligation (L5/L6); assay: Spinal nerve ligation (Chung's) model of experimental neuropathy, von Frey test; conditions: gabapentin single oral dose 100 mg/kg on day 12, 1 h before test

Row | SMILES | effect of pre-treatment on BT13-stimulated neurite outgrowth [1] | block of BT13-stimulated neurite outgrowth, branch points, mean difference ([1]; pre-treatment with LY294002 50 μM, BT13 100 ng/ml) | block of BT13-stimulated neurite outgrowth, maximum length, mean difference ([1]; BT13 100 ng/ml) [μm] | block of BT13-stimulated neurite outgrowth, total length, mean difference ([1]; BT13 100 ng/ml) [μm] | contralateral PWT [2] | ipsilateral PWT [2]
1 | O=c1cc(N2CCOCC2)oc2c(-c3ccccc3)cccc12 [LY294002, reference compound] | completely blocked | 22 ± 5 | 100.7 ± 13 | 817 ± 207 |  | 
2 | COc1cccc(-c2cc(=O)c3ccccc3o2)c1N [PD98059, reference compound] | completely blocked |  | 78 ± 17 | 449 ± 113 |  | 
3 | CN(C)S(=O)(=O)c1ccc2c(c1)/C(=C/c1cc3c([nH]1)CCCC3)C(=O)N2 [SU6656, reference compound] | completely blocked |  | 116 ± 53 | 1098 ± 343 |  | 
4 | NCC1(CC(=O)O)CCCCC1 [gabapentin, reference compound] |  |  |  |  | 26 ± 0.0 | 24.2 ± 1.83
